# Laboratory results: patent publication US20130274174A1, “THERAPEUTIC COMBINATION OF DAPTOMYCIN AND PROTEIN SYNTHESIS INHIBITOR ANTIBIOTIC, AND METHODS OF USE” (priority 2011, published 2013)
# Where two headings read alike, the source gives them in different places.
# Tests used:
# S. aureus ATCC 33591 = test: microbe, parasite or virus in culture; type: cell-based, Staphylococcus aureus; details: for MIC: Staphylococcus aureus
# Procedure, shortened: (§1)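 MW2 passaged on cation-adjusted Mueller-Hinton II agar with ¼ MIC of TR-700, TR-705, LZD, TIA, CLI, TET, VAN or TMP/SMX plus a linear DAP gradient; ATCC 33591 with ¼ MIC TR-700, TMP/SMX or VAN; DAP-only controls.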
# S. aureus MW2 (NRS123) = test: microbe, parasite or virus in culture; type: cell-based, Staphylococcus aureus; details: for MIC: Staphylococcus aureus
# Procedure, shortened: as §1
# [1] = Solubility of test articles in stock solutions and at final test concentrations; type: physicochemical; details: stock solution in DMSO:water (1:1)
# Method: Test articles of stock solutions of daptomycin (Cubist, lot MCB2007) and TR-700 were prepared at 40 times the final target concentration in DMSO:water (1:1). DMSO was added first, the solutions were allowed to stand for 60 minutes and then the water was added. […] The final DMSO concentration was 2.5%. The final drug concentrations in the FIC assay plates were set to bracket the MIC value of each test article for each test organism, unless the strain was totally resistant to the test article.
smiles,measurement,setting,value
"Cn1nnc(-c2ccc(-c3ccc(N4C[C@H](CO)OC4=O)cc3F)cn2)n1 [TR-700, Tedizolid]",DAP MIC lower than DAP-only control,"S. aureus ATCC 33591; ATCC 33591, co-selecting agent at ¼ MIC",4 fold
same,MIC,"S. aureus ATCC 33591; ATCC33591, passage 0, ATCC 33591 WT",0.5 mg/L
same,MIC,"S. aureus ATCC 33591; ATCC33591, passage 5, selection group DAP",0.125 mg/L
same,MIC,"S. aureus ATCC 33591; ATCC33591, passage 5, selection group DAP + TMP/SMX",0.5 mg/L
same,MIC,"S. aureus ATCC 33591; ATCC33591, passage 5, selection group DAP + TR-700",0.5 mg/L
same,MIC,"S. aureus ATCC 33591; ATCC33591, passage 5, selection group DAP + VAN",0.5 mg/L
same,MIC,"S. aureus ATCC 33591; ATCC33591, passage 10, selection group DAP",0.125 mg/L
same,MIC,"S. aureus ATCC 33591; ATCC33591, passage 10, selection group DAP + TMP/SMX",0.25 mg/L
same,MIC,"S. aureus ATCC 33591; ATCC33591, passage 10, selection group DAP + TR-700",0.5 mg/L
same,MIC,"S. aureus ATCC 33591; ATCC33591, passage 10, selection group DAP + VAN",0.5 mg/L
same,MIC,"S. aureus ATCC 33591; ATCC33591, passage 15, selection group DAP",0.125 mg/L
same,MIC,"S. aureus ATCC 33591; ATCC33591, passage 15, selection group DAP + TMP/SMX",0.25 mg/L
same,MIC,"S. aureus ATCC 33591; ATCC33591, passage 15, selection group DAP + TR-700",0.5 mg/L
same,MIC,"S. aureus ATCC 33591; ATCC33591, passage 15, selection group DAP + VAN",0.25 mg/L
same,MIC,"S. aureus ATCC 33591; ATCC33591, passage 20, selection group DAP",0.125 mg/L
same,MIC,"S. aureus ATCC 33591; ATCC33591, passage 20, selection group DAP + TMP/SMX",0.25 mg/L
same,MIC,"S. aureus ATCC 33591; ATCC33591, passage 20, selection group DAP + TR-700",0.5 mg/L
same,MIC,"S. aureus ATCC 33591; ATCC33591, passage 20, selection group DAP + VAN",0.5 mg/L
same,MIC,"S. aureus ATCC 33591; ATCC33591, passage 25, selection group DAP",0.125 mg/L
same,MIC,"S. aureus ATCC 33591; ATCC33591, passage 25, selection group DAP + TMP/SMX",0.25 mg/L
same,MIC,"S. aureus ATCC 33591; ATCC33591, passage 25, selection group DAP + TR-700",0.25 mg/L
same,MIC,"S. aureus ATCC 33591; ATCC33591, passage 25, selection group DAP + VAN",0.25 mg/L
same,MIC,"S. aureus ATCC 33591; ATCC33591, passage 30, selection group DAP",0.125 mg/L
same,MIC,"S. aureus ATCC 33591; ATCC33591, passage 30, selection group DAP + TMP/SMX",0.25 mg/L
same,MIC,"S. aureus ATCC 33591; ATCC33591, passage 30, selection group DAP + TR-700",0.5 mg/L
same,MIC,"S. aureus ATCC 33591; ATCC33591, passage 30, selection group DAP + VAN",0.5 mg/L
same,MIC,"S. aureus ATCC 33591; ATCC33591, read-out: DAP MIC of the co-selection passage group, ATCC 33591, through P15, co-selecting agent at ¼ MIC",≤ 1 mg/L
same,DAP MIC lower than DAP-only control,"S. aureus MW2 (NRS123); MW2, after 30 passages, co-selecting agent at ¼ MIC, total population",16 fold
same,MIC,"S. aureus MW2 (NRS123); NRS123, passage 0, NRS123 WT",0.5 mg/L
same,MIC,"S. aureus MW2 (NRS123); NRS123, passage 5, selection group DAP",0.5 mg/L
same,MIC,"S. aureus MW2 (NRS123); NRS123, passage 5, selection group DAP + CLI",0.5 mg/L
same,MIC,"S. aureus MW2 (NRS123); NRS123, passage 5, selection group DAP + LZD",0.5 mg/L
same,MIC,"S. aureus MW2 (NRS123); NRS123, passage 5, selection group DAP + TET",0.5 mg/L
same,MIC,"S. aureus MW2 (NRS123); NRS123, passage 5, selection group DAP + TIA",0.5 mg/L
same,MIC,"S. aureus MW2 (NRS123); NRS123, passage 5, selection group DAP + TMP/SMX",0.25 mg/L
same,MIC,"S. aureus MW2 (NRS123); NRS123, passage 5, selection group DAP + TR-700",0.5 mg/L
same,MIC,"S. aureus MW2 (NRS123); NRS123, passage 5, selection group DAP + TR-705",0.5 mg/L
same,MIC,"S. aureus MW2 (NRS123); NRS123, passage 5, selection group DAP + VAN",0.25 mg/L
same,MIC,"S. aureus MW2 (NRS123); NRS123, passage 10, selection group DAP",0.5 mg/L
same,MIC,"S. aureus MW2 (NRS123); NRS123, passage 10, selection group DAP + CLI",0.5 mg/L
same,MIC,"S. aureus MW2 (NRS123); NRS123, passage 10, selection group DAP + LZD",0.5 mg/L
same,MIC,"S. aureus MW2 (NRS123); NRS123, passage 10, selection group DAP + TET",0.5 mg/L
same,MIC,"S. aureus MW2 (NRS123); NRS123, passage 10, selection group DAP + TIA",0.5 mg/L
same,MIC,"S. aureus MW2 (NRS123); NRS123, passage 10, selection group DAP + TMP/SMX",0.5 mg/L
same,MIC,"S. aureus MW2 (NRS123); NRS123, passage 10, selection group DAP + TR-700",0.5 mg/L
same,MIC,"S. aureus MW2 (NRS123); NRS123, passage 10, selection group DAP + TR-705",0.5 mg/L
same,MIC,"S. aureus MW2 (NRS123); NRS123, passage 10, selection group DAP + VAN",0.25 mg/L
same,MIC,"S. aureus MW2 (NRS123); NRS123, passage 15, selection group DAP",0.25 mg/L
same,MIC,"S. aureus MW2 (NRS123); NRS123, passage 15, selection group DAP + CLI",0.25 mg/L
same,MIC,"S. aureus MW2 (NRS123); NRS123, passage 15, selection group DAP + LZD",0.5 mg/L
same,MIC,"S. aureus MW2 (NRS123); NRS123, passage 15, selection group DAP + TET",0.25 mg/L
same,MIC,"S. aureus MW2 (NRS123); NRS123, passage 15, selection group DAP + TIA",0.5 mg/L
same,MIC,"S. aureus MW2 (NRS123); NRS123, passage 15, selection group DAP + TMP/SMX",0.5 mg/L
same,MIC,"S. aureus MW2 (NRS123); NRS123, passage 15, selection group DAP + TR-700",0.5 mg/L
same,MIC,"S. aureus MW2 (NRS123); NRS123, passage 15, selection group DAP + TR-705",0.5 mg/L
same,MIC,"S. aureus MW2 (NRS123); NRS123, passage 15, selection group DAP + VAN",0.5 mg/L
same,MIC,"S. aureus MW2 (NRS123); NRS123, passage 20, selection group DAP",0.5 mg/L
same,MIC,"S. aureus MW2 (NRS123); NRS123, passage 20, selection group DAP + CLI",0.25 mg/L
same,MIC,"S. aureus MW2 (NRS123); NRS123, passage 20, selection group DAP + LZD",0.5 mg/L
same,MIC,"S. aureus MW2 (NRS123); NRS123, passage 20, selection group DAP + TET",0.25 mg/L
same,MIC,"S. aureus MW2 (NRS123); NRS123, passage 20, selection group DAP + TIA",0.5 mg/L
same,MIC,"S. aureus MW2 (NRS123); NRS123, passage 20, selection group DAP + TMP/SMX",0.5 mg/L
same,MIC,"S. aureus MW2 (NRS123); NRS123, passage 20, selection group DAP + TR-700",0.5 mg/L
same,MIC,"S. aureus MW2 (NRS123); NRS123, passage 20, selection group DAP + TR-705",0.5 mg/L
same,MIC,"S. aureus MW2 (NRS123); NRS123, passage 20, selection group DAP + VAN",0.5 mg/L
same,MIC,"S. aureus MW2 (NRS123); NRS123, passage 25, selection group DAP",0.25 mg/L
same,MIC,"S. aureus MW2 (NRS123); NRS123, passage 25, selection group DAP + CLI",0.25 mg/L
same,MIC,"S. aureus MW2 (NRS123); NRS123, passage 25, selection group DAP + LZD",0.25 mg/L
same,MIC,"S. aureus MW2 (NRS123); NRS123, passage 25, selection group DAP + TET",0.25 mg/L
same,MIC,"S. aureus MW2 (NRS123); NRS123, passage 25, selection group DAP + TIA",0.5 mg/L
same,MIC,"S. aureus MW2 (NRS123); NRS123, passage 25, selection group DAP + TMP/SMX",0.25 mg/L
same,MIC,"S. aureus MW2 (NRS123); NRS123, passage 25, selection group DAP + TR-700",0.5 mg/L
same,MIC,"S. aureus MW2 (NRS123); NRS123, passage 25, selection group DAP + TR-705",0.5 mg/L
same,MIC,"S. aureus MW2 (NRS123); NRS123, passage 25, selection group DAP + VAN",0.25 mg/L
same,MIC,"S. aureus MW2 (NRS123); NRS123, passage 30, selection group DAP",0.25 mg/L
same,MIC,"S. aureus MW2 (NRS123); NRS123, passage 30, selection group DAP + CLI",0.25 mg/L
same,MIC,"S. aureus MW2 (NRS123); NRS123, passage 30, selection group DAP + LZD",0.5 mg/L
same,MIC,"S. aureus MW2 (NRS123); NRS123, passage 30, selection group DAP + TET",0.25 mg/L
same,MIC,"S. aureus MW2 (NRS123); NRS123, passage 30, selection group DAP + TIA",0.5 mg/L
same,MIC,"S. aureus MW2 (NRS123); NRS123, passage 30, selection group DAP + TMP/SMX",0.5 mg/L
same,MIC,"S. aureus MW2 (NRS123); NRS123, passage 30, selection group DAP + TR-700",0.5 mg/L
same,MIC,"S. aureus MW2 (NRS123); NRS123, passage 30, selection group DAP + TR-705",0.5 mg/L
same,MIC,"S. aureus MW2 (NRS123); NRS123, passage 30, selection group DAP + VAN",0.25 mg/L
same,MIC,"S. aureus MW2 (NRS123); NRS123, read-out: DAP MIC by the end of the experiment (selection of DAP^ns strains), MW2, passaged with DAP alone or with co-selecting agent at ¼ MIC, CLSI breakpoint",> 1 mg/L
same,susceptibility to the co-selecting agent in its co-selection group,S. aureus MW2 (NRS123); over the course of 30 passages,did not demonstrate reduced susceptibility to TR-700
same,concentration above which a precipitate formed,[1],above 1280 μg/ml
